This note sets out measurements from patent publication EP0293900B1, “Phenolic thioethers, sulfoxides, and disulfides as inhibitors of 5-lipoxygenase” (G.D. Searle & Co., priority 1987, dated 1988).

In the assay the target is T1, 5-lipoxygenase (Rattus norvegicus, UniProt P12527).
T1 construct: The 100,000 x g supernatant fraction of Rat Basophilic Leukemia Cell Homogenate (RBL-1) serves as a 5-lipoxygenase enzyme source; endogenous in cells; host or cells: RBL-1 (rat basophilic leukemia) cells, 100,000 x g supernatant of the homogenate
T1 sequence (P12527 1-673): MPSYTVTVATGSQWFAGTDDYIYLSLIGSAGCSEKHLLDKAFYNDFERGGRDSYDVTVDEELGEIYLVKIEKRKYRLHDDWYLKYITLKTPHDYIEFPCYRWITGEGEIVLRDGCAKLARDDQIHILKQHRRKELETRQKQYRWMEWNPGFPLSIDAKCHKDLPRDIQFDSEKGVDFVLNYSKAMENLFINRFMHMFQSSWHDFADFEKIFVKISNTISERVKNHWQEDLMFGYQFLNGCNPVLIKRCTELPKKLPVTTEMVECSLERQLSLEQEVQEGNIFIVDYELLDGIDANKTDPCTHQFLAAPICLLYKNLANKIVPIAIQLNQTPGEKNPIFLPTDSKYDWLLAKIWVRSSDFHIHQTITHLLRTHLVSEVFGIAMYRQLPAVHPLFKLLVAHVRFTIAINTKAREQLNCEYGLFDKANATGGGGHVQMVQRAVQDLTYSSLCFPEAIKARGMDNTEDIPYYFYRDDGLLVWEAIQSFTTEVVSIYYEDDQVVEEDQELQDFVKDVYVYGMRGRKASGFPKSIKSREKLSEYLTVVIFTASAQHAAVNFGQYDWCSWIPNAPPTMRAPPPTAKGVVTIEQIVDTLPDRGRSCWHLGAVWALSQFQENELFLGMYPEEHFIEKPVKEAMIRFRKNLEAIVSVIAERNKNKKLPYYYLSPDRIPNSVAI
The assay is described as follows: Inhibition of 5-lipoxygenase, in vitro (5-HETE synthesis from [1-14C]-arachidonic acid, RBL-1 supernatant). Format: biochemical. The conditions noted are these: 100,000 x g supernatant of Rat Basophilic Leukemia Cell Homogenate (RBL-1), active = 30% or more inhibition of 5-HETE synthesis, initial screening 1 x 10⁻⁴M; for IC50: read-out: 5-Lipoxygenase Inhibition, in vitro. IC₅₀. The procedure: The compounds of the invention are evaluated with respect to 5-lipoxygenase inhibition according to the following assay procedure.
Inhibition of 5-lipoxygenase, in vitro: anti-inflammatory, anti-allergy activities.
The 100,000 x g supernatant fraction of Rat Basophilic Leukemia Cell Homogenate (RBL-1) serves as a 5-lipoxygenase enzyme source. The enzyme is incubated with [1-¹⁴C)-arachidonic acid and Ca⁺⁺ in the presence and absence of test compound. The product of 5-lipoxygenase, 5-hydroxyeicosatetraenoic acid (5-HETE), is separated by thin-layer chromatography and measured by radioactivity. A compound inhibiting 5-HETE synthesis by 30% or more is considered active at that concentration. Initial screening doses are 1 x 10⁻⁴M.

Regarding `CCOC(=O)C(C)Sc1cc(C(C)(C)C)c(O)c(C(C)(C)C)c1` (centres unmarked) [Example 5, Ethyl 2-[[3,5-bis(1,1-dimethylethyl)-4-hydroxyphenyl]thio]propanoate], the IC50 was determined as 390 nM.

As for `COC(=O)CCSc1cc(C(C)(C)C)c(O)c(C(C)(C)C)c1` [Example 9, Methyl 3-[[3,5-bis(1,1-dimethylethyl)-4-hydroxyphenol]thio]propanoate], the IC50 came out at 380 nM. On to `CC(C)(C)c1cc(SCCC(=O)O)cc(C(C)(C)C)c1O` [Example 12, 3-[[3,5-bis(1,1-dimethylethyl)-4-hydroxyphenyl]thio]propanic acid], for which the IC50 worked out at 3400 nM. Same read-out and setting: in the case of `CCOC(=O)C=CCCSc1cc(C(C)(C)C)c(O)c(C(C)(C)C)c1` [Example 13, Ethyl 5-[[3,5-bis(1,1-dimethylethyl)-4-hydroxyphenyl]thio]-2-pentenoate] it was 260 nM; in that of `CC(C)(C)c1cc(SCCCC(=O)O)cc(C(C)(C)C)c1O` [Example 3, 4-[[3,5-bis(1,1-dimethylethyl)-4-hydroxyphenyl]thio] butanoic acid], 1000 nM; in that of `CC(C)(C)c1cc(SCCCCC(=O)O)cc(C(C)(C)C)c1O` [Example 4, 5-[[3,5-bis(1,1-dimethylethyl)-4-hydroxyphenyl]thio]pentanoic acid], 1100 nM. On the same count and under the same terms, in the case of `CCCC(Sc1cc(C(C)(C)C)c(O)c(C(C)(C)C)c1)C(=O)O` (centres unmarked) [Example 8] it was 6600 nM. Regarding `CCCC(Sc1cc(C(C)(C)C)c(O)c(C(C)(C)C)c1)C(=O)OCC` (centres unmarked) [Example 7, Ethyl 2-[[3,5-bis(1,1-dimethylethyl)-4-hydroxyphenyl]thio]pentanoate], the IC50 turned out to be 1300 nM. In the case of `COC(=O)CCS(=O)(=O)c1cc(C(C)(C)C)c(O)c(C(C)(C)C)c1` [Example 11, Methyl 3-[[3,5-bis(1,1 dimethylethyl)-4-hydroxyphenyl]sulfonyl]propanoate], the “5-Lipoxygenase Inhibition, in vitro. IC₅₀” value is reported as “Inactive”. As for `COC(=O)CC[S+]([O-])c1cc(C(C)(C)C)c(O)c(C(C)(C)C)c1` (centres unmarked) [Example 10, Methyl 3-[[3,5-bis(1,1-dimethylethyl)-4-hydroxyphenyl]sulfinyl]propanoate], the IC50 was determined as 16500 nM. Consider `COC(=O)CSSc1cc(C(C)(C)C)c(O)c(C(C)(C)C)c1` [Example 14, Methyl [[3,5-bis(1,1-dimethylethyl)-4-hydroxyphenyl]dithio]acetate], for which the IC50 came out at 400 nM.
